Measurements taken from US20030232902A1, “Ink composition and ink - jet recording method” (FUJI PHOTO FILM CO., LTD., priority 2002, published 2003).

Tests used:
[1] = Solubility of auxiliary solvent in water at 25° C.; details: for Solubility of auxiliary solvent in water at 25° C.: in 100 g of water at 25° C.; for Auxiliary solvent Water solubility: Table 1
[2] = Water solubility of high-boiling point organic solvent; type: physicochemical; details: 25° C.
Description: Thus, the water solubility is preferably 4 g or below, more preferably 3 g or below, and still more preferably 2 g or below and most preferably 1 g or below.

[3] = Specific gravity of high-boiling point organic solvent; type: physicochemical

Compound	Solubility of auxiliary solvent in water at 25° C. [1] [g]	Auxiliary solvent Water solubility [1] [g]	High-boiling point organic solvent Water Solubility [2] [g]	High-boiling point organic solvent Specific Gravity [3]
2-ethylene acetate [AS-4]	20			
CCOC(C)=O [AS-1, ethyl acetate]	8	8		
CCCOC(C)=O [AS-2, propyl acetate]	2	2		
CCC(CC)COC(C)=O [AS-3, 2-ethylbutyl acetate]	<1			
CCOCCOC(C)=O [AS-5, 2-ethoxyethyl acetate]	25			
CCCCOC(C)=O [AS-6, butyl acetate]	2			
CCOC(=O)CC [AS-7, ethyl propionate]	2			
CCCCOCCOCCOC(C)=O [AS-10, 2-(2-n-butoxyethoxy)ethyl acetate]	2			
O=C1CCCCC1 [AS-11, cyclohexanone]	15			
O=P(OCCCl)(OCCCl)OCCCl [SPX-3, (ClCH2CH2O)3—P═O]			4.64	1.41
CCCCCOP(=O)(OCCCCC)OCCCCC [SPX-4, [(n)C5H11O]3—P═O]			4.5	0.94
(ClCH2CHCHO)3—P═O [SPX-2]			0.9	1.51
